# Data from patent publication US6399654B1, “Biflavanoids and derivatives thereof as antiviral agents” (priority 1995, dated 2002).
# Structures can show the parent of a compound that is named as a salt. Where two headings read alike, the source gives them in different places.
# Tests used:
# [1] = tested on: Adenovirus Type 5; assay: microbe, parasite or virus in culture; assay type: cell-based
# [2] = tested on: Human lung carcinoma (A549) cells; conditions: Adenovirus Type 5 test
# [3] = tested on: Human lung carcinoma (A549) cells
# [4] = tested on: Adenovirus Type 5; assay: Adenovirus type 5 neutral red dye uptake in A549 cells; assay type: cell-based; conditions: Adenovirus Type 5
# [5] = target: T1, HIV-1 RT (Human immunodeficiency virus type 1 group M subtype B, UniProt P03366); assay: Anti-HIV-1 RT assay (recombinant enzyme); assay type: biochemical; conditions: for Anti-HIV-1 RT IC50: values in parentheses or in words
# T1 construct: made in house; host or cells: Escherichia coli
# [6] = Cytotoxicity in uninfected PHA-stimulated human PBM cells; conditions: human
# [7] = tested on: HIV-1 (strain LAV-1); assay: microbe, parasite or virus in culture; assay type: cell-based; conditions: for Selective Index (SI): PBM cells
# [8] = tested on: Parainfluenza Type 3 Virus; assay: organism not typed; assay type: cell-based; conditions: Parainfluenza Type 3 Virus
# [9] = tested on: Parainfluenza Type 3 Virus; assay: organism not typed; assay type: cell-based
# [10] = tested on: Measles Virus; assay: Measles virus neutral red dye uptake in BSC-1 cells; assay type: cell-based
# [11] = tested on: African green monkey kidney (BSC-1) cells
# [12] = tested on: HCMV; assay: HCMV CPE inhibition in HFF cells; conditions: HFF Cells
# [13] = tested on: Influenza B Panama/45/90; assay: microbe, parasite or virus in culture; assay type: cell-based; conditions: Influenza B Panama/45/90
# [14] = tested on: Madin Darby canine kidney (MDCK) cells; conditions: for CPE Inhibition IC50 (50% cell inhibitory (cytotoxic) concentration): Influenza A (H1N1) test
# [15] = tested on: Measles Virus; assay: microbe, parasite or virus in culture; assay type: cell-based; conditions: Measles Virus
# [16] = tested on: Influenza A (H3N2) Beijing/32/92; assay: microbe, parasite or virus in culture; assay type: cell-based, influenza A virus; conditions: Influenza A (H3N2) Beijing/32/92
# [17] = tested on: Hepatitis B Virus (HBV); assay: Inhibition of HBV replication in 2.2.15 cells, extracellular (virion) HBV DNA; conditions: for anti-HBV activity (in words) / EC50 / EC90: 2.2.15 cells; for SI (CC50/EC90), HBV Virion: selective index; for EC50: read-out: EC50 (50% effective dose), HBV Virion; for EC50 / EC90: extracellular (virion) HBV DNA, 9 days treatment; for EC90: read-out: EC90 (90% effective dose), HBV Virion;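 on all read-outs here: extracellular virion HBV DNA in culture medium measured by slot blot hybridization with a 32P-labeled HBV probe, quantified against HBV DNA standards, after 9 days of daily dosing, compared with day 0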
# [18] = tested on: African green monkey kidney (BSC-1) cells; conditions: Measles Virus test
# [19] = tested on: HSV-2; assay: HSV-2 CPE inhibition in HFF cells; conditions: HFF Cells
# [20] = tested on: African green monkey kidney (MA-104) cells; conditions: for CPI Inhibition IC50 (cytotoxic): Parainfluenza Type 3 Virus test; for CPE Inhibition IC50 (cytotoxic): Respiratory Syncytial Virus test
# [21] = tested on: Madin Darby canine kidney (MDCK) cells
# [22] = tested on: Influenza A (H1N1) Texas/36/91; assay: microbe, parasite or virus in culture; assay type: cell-based, influenza A virus; conditions: Influenza A (H1N1) Texas/36/91
# [23] = tested on: Influenza A (H1N1) Texas/36/91; assay: microbe, parasite or virus in culture; assay type: cell-based, influenza A virus; conditions: Influenza A (H1N1) Texas/36/91; remark: listed apart in the source
# [24] = tested on: Influenza A (H3N2) Beijing/32/92; assay: microbe, parasite or virus in culture; assay type: cell-based, influenza A virus; conditions: Influenza A (H3N2) Beijing/32/92; remark: listed apart in the source
# [25] = tested on: HFF Cells
# [26] = tested on: Respiratory Syncytial Virus; assay: microbe, parasite or virus in culture; assay type: cell-based; conditions: Respiratory Syncytial Virus
# [27] = tested on: VZV; assay: VZV plaque reduction assay in HFF cells; conditions: for VZV Plaque Reduction EC50 / VZV SI (CC50/EC50): HFF Cells
# [28] = tested on: HSV-1; assay: HSV-1 CPE inhibition in HFF cells; conditions: HFF Cells
# [29] = tested on: Respiratory Syncytial Virus; assay: microbe, parasite or virus in culture; assay type: cell-based; conditions: Respiratory Syncytial Virus; remark: listed apart in the source
# [30] = tested on: adenovirus type 1; assay: Activity against adenovirus type 1; assay type: cell-based; conditions: Human mastadenovirus C
# [31] = tested on: Influenza B Panama/45/90; assay: microbe, parasite or virus in culture; assay type: cell-based
smiles,measurement,setting,value
"Nc1ncnc2c1ncn2C[C@@H](CO)OCP(=O)(O)O [HPMPA, (S)-1-(3-hydroxy-2-phosophonylmethoxypropyl)adenine, reference compound]",CPE Inhibition EC50,[1],30 µg/mL
same,CPE Inhibition IC50 (cytotoxic),[2],80 µg/mL
same,Neutral Red IC50 (cytotoxic),[3],40 µg/mL
same,Neutral Red EC50,[4],8 µg/mL
"O=C1c2c(O)cc(O)cc2O[C@H](c2ccc(O)cc2)[C@H]1c1c(O)cc(O)c2c(=O)cc(-c3ccc(O)c(O)c3)oc12 [Morelloflavone(7), morelloflavone]",IC50,"[5]; Anti-HIV-1 RT IC50, values in parentheses or in words",116 µM
same,IC50,[5]; HIV-1 RT IC50 (50% inhibition dose),116 µM
same,inhibition at 200 µg/mL,[5]; read-out: Anti-HIV-1 RT % Inhibition at 200 μg/ml,99.2%
same,IC50,[6],82 µM
same,anti-HIV-1 activity in PBM cells (in words),[7],potent inhibitory activity
same,EC50,"[7]; Human immunodeficiency virus 1, PBMC, human PBM cells infected with HIV-1 (strain LAV), read-out: Ant-HIV-1 in PBM cells EC50",5.7 µM
same,EC50,"[7]; Human immunodeficiency virus 1, PBMC, read-out: EC50 (50% effective dose) in PBM cells infected with HIV-1, whole cell assay",5.7 µg/mL
same,Selective Index (SI),[7],12
same,Selective Index (SI),[7]; listed as Morelloflavone,approximately 10
same,EC50,"[7]; human PBM cells infected with HIV-1 (strain LAV), read-out: Ant-HIV-1 in PBM cells EC50",8 µM
same,EC50 (50% effective dose) in PBM cells infected with HIV-1,[7]; whole cell assay,8.0 µg/mL
"CC(=O)Oc1ccc([C@@H]2CC(=O)c3c(cc(OC(C)=O)c(-c4c(OC(C)=O)cc(OC(C)=O)c5c4O[C@H](c4ccc(OC(C)=O)cc4)CC5=O)c3OC(C)=O)O2)cc1 [Rhusflavanone hexaacetate (10), rhusflavanone hexaacetate]",CPE Inhibition EC50,[1],>10 µg/mL
same,CPI Inhibition EC50,[8],>10 µg/mL
same,Neutral Red EC50,[9],32 µg/mL
same,CPE Inhibition IC50 (cytotoxic),[2],22 µg/mL
same,Anti-HIV-1 RT % Inhibition at 200 μg/ml,[5],0.00%
same,Anti-HIV-1 RT IC50,[5],Inactive
same,Neutral Red IC50 (cytotoxic),[3],26 µg/mL
same,Neutral Red EC50,[10],<10 µg/mL
same,Neutral Red IC50 (cytotoxic),[11],<11 µg/mL
same,HCMV CPE Inhibition EC50,[12],>4.0 µg/mL
same,HCMV SI (CC50/EC50),[12],<3.3
same,CPE Inhibition EC50,[13],>10 µg/mL
same,CPE Inhibition IC50 (50% cell inhibitory (cytotoxic) concentration),[14],7.2 µg/mL
same,CPE Inhibition IC50 (cytotoxic),[14]; Influenza A (H3N2) test,5.6 µg/mL
same,CPE Inhibition IC50 (cytotoxic),[14]; Influenza B test,4.2 µg/mL
same,CPI Inhibition EC50,[15],˜3 ug/ml
same,Neutral Red EC50,[16],5.4 µg/mL
same,anti-HBV activity (in words),[17],moderate anti-HBV activity
same,"SI (CC50/EC90), HBV Virion",[17],2.8
same,CPI Inhibition IC50 (cytotoxic),[18],<4 µg/mL
same,HSV-2 CPE Inhibition EC50,[19],>4.0 µg/mL
same,HSV-2 SI (CC50/EC50),[19],<4.6
same,CPI Inhibition IC50 (cytotoxic),[20],22 µg/mL
same,CPE Inhibition IC50 (cytotoxic),[20],13 µg/mL
same,Neutral Red IC50 (cytotoxic),[21]; Influenza A (H1N1) test,5.7 µg/mL
same,Neutral Red IC50 (cytotoxic),[21]; Influenza A (H3N2) test,5.3 µg/mL
same,Neutral Red EC50,[4],19 µg/mL
same,Neutral Red EC50,[22],5.6 µg/mL
same,CPE Inhibition EC50,[23],>10 µg/mL
same,CPE Inhibition EC50,[24],>10 µg/mL
same,HCMV CPE Inhibition CC50,[25],13.4 µg/mL
same,HSV-1 CPE Inhibition CC50,[25],18.5 µg/mL
same,HSV-2 CPE Inhibition CC50,[25],18.5 µg/mL
same,VZV Plaque Reduction CC50,[25],46.7 µg/mL
same,CPE Inhibition EC50,[26],>10 µg/mL
same,VZV Plaque Reduction EC50,[27],11.3 µg/mL
same,VZV SI (CC50/EC50),[27],4.1
same,HSV-1 CPE Inhibition EC50,[28],>4.0 µg/mL
same,HSV-1 SI (CC50/EC50),[28],<4.6
same,Neutral Red EC50,[29],19 µg/mL
"O=c1cc(-c2ccc(O)c(-c3c(O)cc4oc(-c5ccc(O)cc5)cc(=O)c4c3O)c2)oc2cc(O)cc(O)c12 [Robustaflavone sodium salt, Robustaflavone tetrasodium salt]",fold less active/potent than robustaflavone against HBV,[17]; in vitro assay against HBV,approximately 10 fold
same,EC50,[17],3.1 µM
same,EC90,[17],12 µM
same,"SI (CC50/EC90), HBV Virion",[17],88
same,EC50,[30],32 µM
same,IC50,"[30]; 50% cell inhibitory (cytotoxic) concentration, read-out: IC50 in the adenovirus type 1 test",> 160 µM
"CC(=O)Oc1ccc([C@@H]2CC(=O)c3c(cc(OC(C)=O)c(-c4c(OC(C)=O)cc5c(c4OC(C)=O)C(=O)C[C@@H](c4ccc(OC(C)=O)cc4)O5)c3OC(C)=O)O2)cc1 [Succedaneaflavanone hexaacetate (12), succedaneaflavanone hexaacetate]",CPE Inhibition EC50,[1],20 µg/mL
same,Neutral Red EC50,[31],5.9 µg/mL
same,CPI Inhibition EC50,[8],>10 µg/mL
same,Neutral Red EC50,[9],>32 µg/mL
same,CPE Inhibition IC50 (cytotoxic),[2],19 µg/mL
same,Anti-HIV-1 RT % Inhibition at 200 μg/ml,[5],0.00%
same,Anti-HIV-1 RT IC50,[5],Inactive
same,Neutral Red IC50 (cytotoxic),[3],6 µg/mL
same,Neutral Red EC50,[10],<2 µg/mL
same,Neutral Red IC50 (cytotoxic),[11],<200 µg/mL
same,HCMV CPE Inhibition EC50,[12],>4.0 µg/mL
same,HCMV SI (CC50/EC50),[12],<3.5
same,CPE Inhibition EC50,[13],5.4 µg/mL
same,CPE Inhibition IC50 (50% cell inhibitory (cytotoxic) concentration),[14],8.2 µg/mL
same,CPE Inhibition IC50 (cytotoxic),[14]; Influenza A (H3N2) test,12 µg/mL
same,CPE Inhibition IC50 (cytotoxic),[14]; Influenza B test,12 µg/mL
same,CPI Inhibition EC50,[15],˜3.2 ug/ml
same,Neutral Red EC50,[16],5.6 µg/mL
same,anti-HBV activity (in words),[17],moderate anti-HBV activity
same,EC50,[17],3.5 µM
same,EC90,[17],128 µM
same,"SI (CC50/EC90), HBV Virion",[17],1.9
same,CPI Inhibition IC50 (cytotoxic),[18],<4 µg/mL
same,HSV-2 CPE Inhibition EC50,[19],>4.0 µg/mL
same,HSV-2 SI (CC50/EC50),[19],<4.4
same,CPI Inhibition IC50 (cytotoxic),[20],˜14 ug/ml
same,CPE Inhibition IC50 (cytotoxic),[20],4 µg/mL
same,Neutral Red IC50 (cytotoxic),[21]; Influenza A (H1N1) test,7.4 µg/mL
same,Neutral Red IC50 (cytotoxic),[21]; Influenza A (H3N2) test,5.6 µg/mL
same,Neutral Red IC50 (cytotoxic),[21]; Influenza B test,5.9 µg/mL
same,Neutral Red EC50,[4],6 µg/mL
same,Neutral Red EC50,[22],7.4 µg/mL
same,CPE Inhibition EC50,[23],5.6 µg/mL
same,CPE Inhibition EC50,[24],8.8 µg/mL
same,HCMV CPE Inhibition CC50,[25],14.4 µg/mL
same,HSV-1 CPE Inhibition CC50,[25],17.7 µg/mL
same,HSV-2 CPE Inhibition CC50,[25],17.7 µg/mL
same,VZV Plaque Reduction CC50,[25],68.0 µg/mL
same,CPE Inhibition EC50,[26],>3 µg/mL
same,activity against VZV (in words),[27],moderately active
same,VZV Plaque Reduction EC50,[27],7.1 µg/mL
same,VZV SI (CC50/EC50),[27],9.6
same,HSV-1 CPE Inhibition EC50,[28],>4 µg/mL
same,HSV-1 SI (CC50/EC50),[28],<4.4
same,Neutral Red EC50,[29],6 µg/mL
